{"source": "ChEMBL document CHEMBL5346956", "about": "“Opportunities and Challenges for Inhibitors Targeting Citrate Transport and Metabolism in Drug Discovery” (J Med Chem, 2023)", "key": {"[1]": {"test": "Metabolic stability in rat liver microsomes assessed as half life", "format": "ADME, Microsome"}, "ATP-citrate synthase [2]": {"target": "T1, ATP-citrate synthase (Homo sapiens, UniProt P53396)", "T1 sequence (P53396 whole entry)": "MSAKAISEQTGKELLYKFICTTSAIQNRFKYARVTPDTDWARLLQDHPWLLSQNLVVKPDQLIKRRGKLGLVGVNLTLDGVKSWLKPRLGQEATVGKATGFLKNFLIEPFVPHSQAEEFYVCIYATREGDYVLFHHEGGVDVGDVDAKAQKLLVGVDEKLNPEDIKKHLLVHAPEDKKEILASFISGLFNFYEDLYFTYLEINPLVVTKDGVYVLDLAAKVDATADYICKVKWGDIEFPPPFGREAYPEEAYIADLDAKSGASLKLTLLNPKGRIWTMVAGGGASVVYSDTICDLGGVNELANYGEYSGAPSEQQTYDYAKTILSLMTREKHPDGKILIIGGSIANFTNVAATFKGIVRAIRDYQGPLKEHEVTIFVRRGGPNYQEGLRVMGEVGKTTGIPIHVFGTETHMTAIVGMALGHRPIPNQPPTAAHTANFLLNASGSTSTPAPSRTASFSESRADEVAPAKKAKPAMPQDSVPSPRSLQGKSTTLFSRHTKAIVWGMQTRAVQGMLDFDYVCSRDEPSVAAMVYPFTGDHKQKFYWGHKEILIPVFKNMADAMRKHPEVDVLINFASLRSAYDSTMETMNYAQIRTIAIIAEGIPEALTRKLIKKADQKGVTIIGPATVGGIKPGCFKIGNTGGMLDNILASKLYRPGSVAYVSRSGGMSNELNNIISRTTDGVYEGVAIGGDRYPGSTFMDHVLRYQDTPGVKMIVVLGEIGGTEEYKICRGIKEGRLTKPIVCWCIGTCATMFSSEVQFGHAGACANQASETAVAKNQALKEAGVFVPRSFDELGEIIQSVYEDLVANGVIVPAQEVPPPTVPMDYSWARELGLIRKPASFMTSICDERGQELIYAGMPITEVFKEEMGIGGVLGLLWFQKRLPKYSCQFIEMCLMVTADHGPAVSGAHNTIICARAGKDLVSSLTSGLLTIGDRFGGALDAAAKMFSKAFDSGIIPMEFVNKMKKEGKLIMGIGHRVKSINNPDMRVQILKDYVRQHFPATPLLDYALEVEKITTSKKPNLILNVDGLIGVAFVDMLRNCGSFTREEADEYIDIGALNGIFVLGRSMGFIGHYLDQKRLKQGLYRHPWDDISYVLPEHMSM", "test": "Binding affinity to ACLY (unknown origin) assessed as inhibition constant"}, "HeLa": {"test_system": "HeLa", "test": "Antiproliferative activity against human HeLa cells assessed as inhibition of cell growth measured after 24 hrs", "format": "functional, cell-based"}, "[3]": {"test": "Inhibition of mouse mINDY in HEK293 cells", "format": "cell-based"}, "[4]": {"target": "T2, Na(+)/dicarboxylate cotransporter 3 (Homo sapiens, UniProt Q8WWT9)", "T2 sequence (Q8WWT9 whole entry)": "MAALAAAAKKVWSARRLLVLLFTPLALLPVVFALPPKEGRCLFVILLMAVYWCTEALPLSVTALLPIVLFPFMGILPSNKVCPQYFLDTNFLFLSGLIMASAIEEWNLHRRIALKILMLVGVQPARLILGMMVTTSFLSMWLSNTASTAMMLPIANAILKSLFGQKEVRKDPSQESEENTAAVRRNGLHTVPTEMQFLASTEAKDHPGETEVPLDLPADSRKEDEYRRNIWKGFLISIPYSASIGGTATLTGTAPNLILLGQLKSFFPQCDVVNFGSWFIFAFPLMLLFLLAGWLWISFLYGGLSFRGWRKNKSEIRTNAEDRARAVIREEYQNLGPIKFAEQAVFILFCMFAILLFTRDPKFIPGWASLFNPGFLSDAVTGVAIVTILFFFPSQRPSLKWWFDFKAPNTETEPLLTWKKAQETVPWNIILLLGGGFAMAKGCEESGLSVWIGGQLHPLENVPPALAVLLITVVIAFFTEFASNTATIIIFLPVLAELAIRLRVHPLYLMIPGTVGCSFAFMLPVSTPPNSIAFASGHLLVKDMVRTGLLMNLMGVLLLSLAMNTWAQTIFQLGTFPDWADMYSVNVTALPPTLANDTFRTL", "test": "Inhibition of human SLC13A3 in HepG2 cells by measuring […] uptake", "format": "cell-based"}, "ATP-citrate synthase [5]": {"target": "T3, ATP-citrate synthase (Rattus norvegicus, UniProt P16638)", "T3 sequence (P16638 whole entry)": "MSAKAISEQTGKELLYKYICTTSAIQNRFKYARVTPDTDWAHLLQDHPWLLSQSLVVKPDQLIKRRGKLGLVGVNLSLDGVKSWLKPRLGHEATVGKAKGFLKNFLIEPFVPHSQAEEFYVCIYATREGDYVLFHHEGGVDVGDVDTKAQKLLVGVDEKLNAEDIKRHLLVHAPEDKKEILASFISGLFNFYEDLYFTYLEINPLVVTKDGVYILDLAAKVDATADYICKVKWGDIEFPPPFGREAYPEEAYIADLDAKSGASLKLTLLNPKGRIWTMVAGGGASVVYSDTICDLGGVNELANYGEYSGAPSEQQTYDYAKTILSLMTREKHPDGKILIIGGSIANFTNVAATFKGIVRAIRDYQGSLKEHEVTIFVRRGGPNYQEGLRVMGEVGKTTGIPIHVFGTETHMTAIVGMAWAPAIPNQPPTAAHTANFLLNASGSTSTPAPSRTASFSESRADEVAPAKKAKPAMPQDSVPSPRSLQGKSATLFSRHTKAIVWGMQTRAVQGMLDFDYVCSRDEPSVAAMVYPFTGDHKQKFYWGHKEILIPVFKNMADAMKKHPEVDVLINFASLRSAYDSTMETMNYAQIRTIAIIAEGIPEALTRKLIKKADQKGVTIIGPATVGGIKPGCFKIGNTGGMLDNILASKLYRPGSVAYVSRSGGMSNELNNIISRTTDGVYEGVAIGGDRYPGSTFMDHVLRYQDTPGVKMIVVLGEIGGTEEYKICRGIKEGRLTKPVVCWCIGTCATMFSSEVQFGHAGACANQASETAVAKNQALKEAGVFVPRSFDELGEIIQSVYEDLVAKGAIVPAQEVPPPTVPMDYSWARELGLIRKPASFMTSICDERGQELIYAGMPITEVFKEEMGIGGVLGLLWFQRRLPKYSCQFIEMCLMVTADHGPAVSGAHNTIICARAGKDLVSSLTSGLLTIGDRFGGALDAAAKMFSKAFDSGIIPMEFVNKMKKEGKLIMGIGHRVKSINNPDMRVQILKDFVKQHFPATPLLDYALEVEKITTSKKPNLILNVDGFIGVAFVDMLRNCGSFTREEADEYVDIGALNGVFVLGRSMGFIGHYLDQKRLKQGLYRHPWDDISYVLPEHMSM", "test": "Binding affinity to rat ACLY assessed as inhibition constant measured after 20 mins"}, "ATP-citrate synthase [6]": {"target": "T1, ATP-citrate synthase"}, "[7]": {"target": "T4, Tricarboxylate transport protein, mitochondrial (Homo sapiens, UniProt P53007)", "test": "Inhibition of SLC25A1 (unknown origin) at 1 uM relative to control"}, "in vitro": {"test": "in vitro", "details": "human, liver microsomes"}, "ATP-citrate synthase [8]": {"target": "T1, ATP-citrate synthase", "remark": "listed apart in the source"}, "ATP-citrate synthase [9]": {"target": "T1, ATP-citrate synthase", "remark": "listed apart in the source"}, "[10]": {"target": "T4, Tricarboxylate transport protein, mitochondrial", "test": "Inhibition of human SLC25A1 at 1 uM relative to control"}, "[11]": {"target": "T4, Tricarboxylate transport protein, mitochondrial", "test": "Binding affinity to human SLC25A1 assessed as inhibition constant"}, "[12]": {"target": "Na(+)/citrate cotransporter (Homo sapiens, UniProt Q86YT5)", "sequence (Q86YT5 whole entry)": "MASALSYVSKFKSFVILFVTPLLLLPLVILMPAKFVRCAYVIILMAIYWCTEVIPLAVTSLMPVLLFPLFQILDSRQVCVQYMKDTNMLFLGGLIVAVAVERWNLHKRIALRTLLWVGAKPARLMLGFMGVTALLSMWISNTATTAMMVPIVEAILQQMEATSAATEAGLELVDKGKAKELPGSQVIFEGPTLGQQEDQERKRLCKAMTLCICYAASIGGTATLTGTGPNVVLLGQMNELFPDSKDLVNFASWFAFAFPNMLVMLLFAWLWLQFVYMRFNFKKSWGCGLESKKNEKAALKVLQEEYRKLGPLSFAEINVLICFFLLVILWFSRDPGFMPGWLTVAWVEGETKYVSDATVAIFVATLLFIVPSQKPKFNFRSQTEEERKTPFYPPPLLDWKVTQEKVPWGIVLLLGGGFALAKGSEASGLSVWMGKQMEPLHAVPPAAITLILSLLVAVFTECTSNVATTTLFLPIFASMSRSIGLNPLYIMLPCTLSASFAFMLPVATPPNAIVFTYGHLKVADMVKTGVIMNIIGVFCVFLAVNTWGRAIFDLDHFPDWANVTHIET", "test": "Inhibition of recombinant human SLC13A5 in HEK293T cells", "format": "cell-based"}}}
{"compound": "[2H]C(O)(CCCCCC(C)(C)C(=O)O)CCCCCC(C)(C)C(=O)O", "values": [{"measurement": "half-life", "setting": "[1]", "value": "> 2.42", "unit": "h"}]}
{"compound": "C[C@@H]1C[C@H]2O[C@@H]2/C=C\\C=C\\C(=O)Cc2c(Cl)c(O)cc(O)c2C(=O)O1", "note": "[RADICICOL]", "values": [{"measurement": "Ki", "setting": "ATP-citrate synthase [2]", "value": 13, "unit": "µM"}]}
{"compound": "[2H]C([2H])(CCCCC(C)(C)C(=O)O)C([2H])(O)C([2H])([2H])CCCCC(C)(C)C(=O)O", "values": [{"measurement": "half-life", "setting": "[1]", "value": "> 2.42", "unit": "h"}]}
{"compound": "O=c1c(O)c(-c2ccc(O)cc2)oc2c(O)c(O)cc(O)c12", "note": "[HERBACETIN]", "values": [{"measurement": "IC50", "setting": "HeLa", "value": 0.5, "unit": "µM"}]}
{"compound": "O=C(Nc1cc(Cl)cc(C(F)(F)F)c1)OCCC(F)(F)F", "values": [{"measurement": "IC50", "setting": "[3]", "value": 0.18, "unit": "µM"}, {"measurement": "IC50", "setting": "[4]", "value": 0.16, "unit": "µM"}]}
{"compound": "O=C(O)CC(O)(CCCCCCCCc1ccc(Cl)cc1Cl)C(=O)O", "note": "(stereo unspecified)", "values": [{"measurement": "Ki", "setting": "ATP-citrate synthase [2]", "value": 1.2, "unit": "µM"}]}
{"compound": "O=C(O)C[C@@]1(O)C[C@@H](Cc2ccc(Cl)cc2Cl)OC1=O", "values": [{"measurement": "Ki", "setting": "ATP-citrate synthase [5]", "value": 1, "unit": "µM"}]}
{"compound": "O=C(O)C[C@](O)(C[C@H](O)CCCCCCc1ccc(Cl)cc1Cl)C(=O)O", "values": [{"measurement": "Ki", "setting": "ATP-citrate synthase [2]", "value": 1, "unit": "µM"}]}
{"compound": "CC(C)(CCCC/C=C/CCCCCC(C)(C)C(=O)O)C(=O)O", "values": [{"measurement": "IC50", "setting": "ATP-citrate synthase [6]", "value": 5.31, "unit": "µM"}]}
{"compound": "[2H]C(O)(CCCCCC(C(=O)O)(C([2H])([2H])[2H])C([2H])([2H])[2H])CCCCCC(C(=O)O)(C([2H])([2H])[2H])C([2H])([2H])[2H]", "values": [{"measurement": "half-life", "setting": "[1]", "value": "> 2.42", "unit": "h"}]}
{"compound": "O=C(O)c1cccc(C(=O)O)c1C(=O)O", "values": [{"measurement": "inhibition", "setting": "[7]", "value": 95, "unit": "%"}]}
{"compound": "O=C(O)CC(O)(CC(=O)CCCCCCc1ccc(Cl)cc1Cl)C(=O)O", "note": "(stereo unspecified)", "values": [{"measurement": "Ki", "setting": "ATP-citrate synthase [2]", "value": 1.2, "unit": "µM"}]}
{"compound": "O=C1NCc2ccccc2-c2cc(c(F)cc2F)NS(=O)(=O)c2cc1cc(Cl)c2O", "values": [{"measurement": "half-life", "setting": "in vitro", "value": 8.85, "unit": "h"}]}
{"compound": "O=C(O)CC(CSCCCCCCc1ccc(Cl)cc1Cl)C(=O)O", "note": "(stereo unspecified)", "values": [{"measurement": "Ki", "setting": "ATP-citrate synthase [2]", "value": 1.2, "unit": "µM"}]}
{"compound": "COC(=O)c1cc(Cl)c(O)c(S(=O)(=O)Nc2cc(-c3ccccc3)c(F)cc2F)c1", "values": [{"measurement": "Ki", "setting": "ATP-citrate synthase [2]", "value": 0.007, "unit": "µM"}, {"measurement": "Kd", "setting": "ATP-citrate synthase [8]", "value": 0.0022, "unit": "µM"}, {"measurement": "IC50", "setting": "ATP-citrate synthase [9]", "value": 0.0021, "unit": "µM"}, {"measurement": "half-life", "setting": "in vitro", "value": 0.056, "unit": "h"}]}
{"compound": "O=C(O)CC(O)(CSCCCCCCc1ccc(Cl)cc1Cl)C(=O)O", "note": "(stereo unspecified)", "values": [{"measurement": "Ki", "setting": "ATP-citrate synthase [2]", "value": 1.2, "unit": "µM"}]}
{"compound": "O=C(O)c1ccc(Cl)c(S(=O)(=O)Nc2cccc([N+](=O)[O-])c2)c1", "values": [{"measurement": "inhibition", "setting": "[7]", "value": 84.7, "unit": "%"}, {"measurement": "inhibition", "setting": "[10]", "value": 84.7, "unit": "%"}, {"measurement": "Ki", "setting": "[11]", "value": 48, "unit": "µM"}]}
{"compound": "[2H]C([2H])(CCCCC(C)(C)C(=O)O)C(O)C([2H])([2H])CCCCC(C)(C)C(=O)O", "values": [{"measurement": "half-life", "setting": "[1]", "value": "> 2.42", "unit": "h"}]}
{"compound": "Cc1nc(OC(F)F)ccc1C(C)N1CCc2c(C#N)c(Cl)nc(NCC#N)c2C1", "note": "(stereo unspecified)", "values": [{"measurement": "IC50", "setting": "[12]", "value": "< 0.05", "unit": "µM"}, {"measurement": "IC50", "setting": "[4]", "value": "< 0.05", "unit": "µM"}]}
